Assay results taken from PubChem BioAssay (NCI).
Values joined by “and” are separate entries in the source; they are usually repeats but may differ in a detail not shown here. Equal values may be shown once.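 Following 48 hours of exposure in 96-well plates, responses at five concentrations were used to interpolate endpoints linearly. GI50 = concentration required for 50% inhibition of growth. TGI is the concentration that stops growth completely.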

How the values were obtained:
Assay in all cases: inhibition of tumour cell growth, NCI panel, 48 h
[1] = system: OVCAR-4 ovarian
[2] = system: UACC-62 melanoma
[3] = system: M14 melanoma
[4] = system: HCC-2998 colon
[5] = system: UACC-257 melanoma
[6] = system: SK-MEL-2 melanoma
[7] = system: NCI-H226 lung
[8] = system: SN12C renal
[9] = system: OVCAR-3 ovarian
[10] = system: K-562 leukemia

Compound | TGI [1] [µM] | TGI [2] [µM] | TGI [3] | TGI [4] [µM] | TGI [5] [µM] | TGI [6] | TGI [7] [µM] | TGI [8] [µM] | TGI [9] | TGI [10] [µM] | GI50 [1] | GI50 [2] | GI50 [3] | GI50 [4] | GI50 [5] | GI50 [6] | GI50 [7] | GI50 [9] | GI50 [10] | GI50 [8]
Cc1ccc(C2=NO[C@@H]3C(=O)N(c4ccc(Cc5ccc(N6C(=O)[C@H]7C(c8ccc(C)cc8)=NO[C@H]7C6=O)cc5)cc4)C(=O)[C@H]23)cc1 | > 100 | > 100 | > 100 µM | > 100 | > 100 | > 100 µM | > 100 | > 100 | > 100 µM | > 100 | – | – | – | – | – | – | – | – | – | –
Cc1cc(C)nc(SC2=C(Nc3cccc(Cl)c3)C(=O)N(Cc3ccccc3)C2=O)n1 | > 170 | > 170 | > 170 µM | > 170 | > 170 | > 170 µM | 9.43 | – | > 170 µM | > 170 | > 170 µM | 34.9 µM | 39.6 µM | > 170 µM | > 170 µM | > 170 µM | 0.729 µM | > 170 µM | 5.25 µM | –
Cn1cc(C2=C(c3c4n(c5ccccc35)CCC(CN)CC4)C(=O)NC2=O)c2ccccc21 (stereo unspecified) | 7.51 | 7.28 | 8.26 µM | 8.46 | 7.57 | 8.25 µM | 16.2 | 8.14 | 8.75 µM | 11.9 | 1.96 µM | 3.65 µM | 4.29 µM | 4.43 µM | 3.89 µM | 4.02 µM | 5.01 µM | 4.31 µM | 4.72 µM | 3.87 µM
O=C(O)c1cccc(CC(Br)C(=O)O)c1 (stereo unspecified) | > 100 | > 100 | > 100 µM | > 100 | > 100 | > 100 µM | > 100 | > 100 | > 100 µM | > 100 | – | – | – | – | – | – | – | – | – | –
COc1cc(C(=O)n2nc(N3CCN(C)CC3)c3cc(N)ccc32)cc(OC)c1OC | > 100 | 17.7 | 16.7 µM | 14.3 | > 100 | 67.5 µM | 34.5 | > 100 | 5.62 µM | 13.2 | 4.17 µM | 2.78 µM | 3.74 µM | 3.6 µM | 28.5 µM | 10.4 µM | 5.61 µM | 2.39 µM | 3.57 µM | 4.42 µM
Cn1c2cccc3nnc4cccc(c4c32)n1C | > 100 | > 100 | > 100 µM | > 100 | > 100 | > 100 µM | > 100 | > 100 | > 100 µM | > 100 | – | – | – | – | – | – | – | – | – | –
CC(C)=CCC/C(C)=C/CC/C(=C/COP(=O)(OCc1ccc([N+](=O)[O-])o1)N(C)CCCCCl)C(C)(C)C (stereo unspecified) | 33.1 | 23.5 | 11.8 µM | 2.29 | 27.6 | 11.4 µM | – | 7.27 | 3.66 µM | > 100 | 11.8 µM | 9.21 µM | 2.69 µM | 0.0486 µM | 10.8 µM | 2.73 µM | – | 1.94 µM | 6.22 µM | 2.6 µM
COC(=O)N/N=C(\C)C(CN1CCOCC1)C(c1ccccc1)c1cc2ccccc2oc1=O (stereo unspecified) | > 100 | > 100 | > 100 µM | > 100 | > 100 | > 100 µM | > 100 | > 100 | > 100 µM | > 100 | – | – | – | – | – | – | – | – | – | –
Cc1ccc2sc3c(NCCCNCCO)nc4ccccc4c3c(=O)c2c1 | 3.12 | 3.14 | 3.06 µM | 3.32 | 3.76 | 3.36 µM | 3.68 | 3.16 | 3.26 µM | 3.72 | 1.64 µM | 1.69 µM | 1.61 µM | 1.64 µM | 1.87 µM | 1.73 µM | 1.78 µM | 1.75 µM | 1.36 µM | 1.6 µM
COc1cc(-c2nc3ccccc3s2)ccc1OCc1nc2n(n1)S(=O)(=O)c1ccccc1N2C | > 100 | > 100 | > 100 µM | > 100 | > 100 | > 100 µM | > 100 | > 100 | > 100 µM | > 100 | > 100 µM | > 100 µM | > 100 µM | > 100 µM | > 100 µM | > 100 µM | > 100 µM | 62.4 µM | 97.4 µM | > 100 µM
COC(=O)c1c2c(c(C)[n+]([O-])c1C)C(=O)C(NCc1ccc(F)c(F)c1)=CC2=O | 2.22 | 3.35 | 3.6 µM | 5.35 | 2.96 | 6.73 µM | 8.14 | 4.32 | 1.09 µM | 9.59 | 1.03 µM | 1.53 µM | 1.64 µM | 2.26 µM | 1.13 µM | 2.16 µM | 2.69 µM | 0.333 µM | 2.23 µM | 1.73 µM
Cc1ncc([N+](=O)[O-])n1CCNC(=O)CCn1ccnc1[N+](=O)[O-] | > 100 | > 100 | > 100 µM | > 100 | > 100 | > 100 µM | > 100 | > 100 | > 100 µM | > 100 | – | – | – | – | – | – | – | – | – | –
O=C(O)CCC1CCC(c2cc(F)ccc2F)(S(=O)(=O)c2ccc(Cl)cc2)CC1 (stereo unspecified) | > 100 | > 100 | 52.5 µM and > 100 µM | > 100 | > 100 | 69.7 µM and > 100 µM | > 100 | > 100 | 63.5 µM and > 100 µM | > 100 | 30.5 µM and > 65.6 µM | 28.2 µM and 97.1 µM | 15.9 µM and > 100 µM | 38 µM and > 75.4 µM | 44 µM and > 100 µM | 20.1 µM and > 100 µM | 41.2 µM and > 100 µM | 22.7 µM and > 100 µM | 34.6 µM and 34.7 µM | 49 µM and > 100 µM
CC/C(=C(\CC)c1ccc(OCCN(CC)CC)cc1)c1ccc(OCCN(CC)CC)cc1 | 12.3 | 4.29 | 2.27 µM | 18.9 | 2.82 | 7.58 µM | 13.7 | 21.3 | 16.1 µM | 10.5 | 3.13 µM | 1.92 µM | 0.771 µM | 5.57 µM | 1.23 µM | 1.9 µM | 3.87 µM | 3.45 µM | 1.79 µM | 5.32 µM
